This passage reports TGI and GI50 results from PubChem BioAssay (NCI).

Assay in all cases: NCI-60 cell line screen, 48 h
Experiment [1] concerns LOX IMVI melanoma.
Experiment [2] deals with MDA-MB-435.
In experiment [3] the test system is SW-620 colon.
The test system of experiment [4] is OVCAR-4 ovarian.
Experiment [5] has as its system SK-MEL-2 melanoma.
The test system of experiment [6] is SF-268 CNS.
Experiment [7] relates to MCF7 breast.
Experiment [8] concerns SR leukemia.
Experiment [9] concerns SK-MEL-28 melanoma.
Experiment [10] has as its system HOP-92 NSCLC.

Molecules are shown by their SMILES. Several values for one entry are separate records, joined by “and”; a condition that tells them apart may be missing. Equal entries are not always repeated.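 How tested: cells in 96-well plates exposed to compound for 48 hours at five concentrations. Abbreviation: GI50, concentration required for 50% inhibition of growth. TGI: total growth inhibition.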

Take `CSc1nc(SC)c2c(CO)c(Br)n(Cc3ccccc3)c2n1`: the TGI in [1] is greater than 100 µM; in experiment [2], greater than 100 µM; in [3] it was greater than 100 µM; in [4], 41.7 µM; in [5], greater than 100 µM; in experiment [6], 33.7 µM. The TGI in [7] was greater than 100 µM; in experiment [8], greater than 100 µM; in experiment [9], greater than 100 µM; in [10] it was 41.8 µM.

Turning to `CC(=O)OCc1cc2ccccc2nc1C(Br)(Br)Br`, the TGI in experiment [1] was determined as 29.2 µM; in [2] it was 27 µM; in experiment [3], 44.8 µM; in [4], 30.5 µM; in experiment [5], 41.9 µM; in [6], 39.9 µM. Further, the TGI in experiment [7] worked out at 30.7 µM; in experiment [8] it was 13.7 µM; in [9], 42.6 µM; in experiment [10], 31.2 µM.

For `CC(C(O)c1ccccc1)C(O)(C(F)(F)F)C(F)(F)F` (stereo not given), the TGI in experiment [1], in experiment [2], in experiment [3], in experiment [4], in [5] and in [6] was greater than 100 µM throughout. For the same compound, the TGI in experiment [7], in experiment [8], in [9] and in experiment [10] was greater than 100 µM each time.

As for `Cn1cc(-c2ccc(-c3ccc(C4=NC5(CC5)C(=O)N4C[C@@H]4CCN(C(=O)C5CC5)C4)cc3)cc2)cn1`, the GI50 in experiment [1] is 1.47 µM; in experiment [2] it was 10.4 µM; in [3] it was 18.2 µM; in [4], 5.74 µM; in experiment [5] it was 24.8 µM; in experiment [6], 11.9 µM. For the same compound, the GI50 in experiment [7] was 1.12 µM; in [8], 1.68 µM; in experiment [9] it was 20.3 µM; in experiment [10] it was 23.6 µM. In addition, the TGI in experiment [1] is 18 µM; in experiment [2], 38.9 µM; in experiment [3], greater than 100 µM; in experiment [4] it was greater than 100 µM; in experiment [5] it was greater than 100 µM; in [6] it was greater than 100 µM. Moreover, the TGI in [7] was greater than 100 µM; in experiment [8] it was 95.3 µM; in experiment [9] it was 79 µM; in experiment [10], greater than 100 µM.

Regarding `COc1cc(Nc2ncc(F)c(Nc3ccc4c(n3)N(COP(=O)(O)O)C(=O)C(C)(C)O4)n2)cc(OC)c1OC`, the GI50 in [1] is 1.38 µM and 1.09 µM; in experiment [2], 2.78 µM and 2.67 µM; in experiment [3] it was 3.6 µM and 3.98 µM; in experiment [4] it was 1.69 µM and 1.74 µM; in experiment [5] it was 5.81 µM; in [6] it was 1.45 µM and 1.04 µM. Also, the GI50 in experiment [7] was 3.02 µM and 3.32 µM; in [8] it was 2.93 µM and 2.97 µM; in [9], 3.69 µM and 5.05 µM; in experiment [10] it was 1.25 µM and 0.345 µM. For the same compound, the TGI in [1] was 2.99 µM and 2.46 µM; in experiment [2], 22 µM and > 10 µM; in experiment [3], greater than 84.4 µM; in [4] it was 6.31 µM and 6.78 µM; in experiment [5] it was 53.3 µM and > 10 µM; in experiment [6], 5.22 µM and 3.73 µM. For the same compound, the TGI was 22.6 µM and > 10 µM in experiment [7]; greater than 36.5 µM in experiment [8]; 21 µM and > 10 µM in [9]; 4.23 µM and 1.87 µM in experiment [10].

On to `C#CCOc1cccc(Nc2ncnc3cc(NC(=O)CCl)ccc23)c1`, for which the GI50 in experiment [1] was 1.19 µM; in experiment [2], 3.1 µM; in experiment [3] it was 1.23 µM; in experiment [4], 12.1 µM; in experiment [5], 12.4 µM; in experiment [6] it was 4.32 µM. The GI50 is 1.95 µM in [7], 0.49 µM in [8], 11 µM in experiment [9] and 12.4 µM in experiment [10]. In addition, the TGI in [1] stood at 2.7 µM; in experiment [2] it was 16.4 µM; in [3] it was 3.25 µM; in experiment [4], 35.7 µM; in experiment [5] it was 27.4 µM; in experiment [6], 19.7 µM. Also, the TGI in [7] was found to be 7.99 µM; in [8], 5.59 µM; in [9], 24.4 µM; in experiment [10] it was 27.3 µM.

Consider `O=c1c(O)c(-c2cc(O)c(O)c(O)c2)oc2cc(O)cc(O)c12`, for which the TGI in [1] was 31 µM; in experiment [2], 34.8 µM; in experiment [3], 36 µM; in experiment [4] it was 30.2 µM; in experiment [5] it was greater than 100 µM; in experiment [6] it was greater than 100 µM. Also, the TGI in experiment [7] was 37.4 µM; in [8] it was greater than 100 µM; in experiment [9] it was greater than 100 µM; in experiment [10] it was greater than 100 µM.

Consider `CCNC(=O)O[C@H]1CN[C@H](C#Cc2cc3ncnc(Nc4ccc(OCc5cccc(F)c5)c(Cl)c4)c3s2)C1`, for which the GI50 was 8.12 µM in experiment [1]; 9.27 µM in experiment [2]; 12 µM in experiment [3]; 9.94 µM in experiment [4]; 6.1 µM in [5]; 6 µM in [6]. The GI50 in [7] is 8.95 µM; in [8], 6.99 µM; in [9], greater than 25 µM; in experiment [10] it was 0.83 µM. In addition, the TGI in experiment [1] was greater than 25 µM; in [2] it was greater than 25 µM; in experiment [3] it was greater than 25 µM; in experiment [4] it was greater than 25 µM; in experiment [5], 24.9 µM; in experiment [6] it was greater than 25 µM. Moreover, the TGI in [7] is greater than 25 µM; in experiment [8], greater than 25 µM; in experiment [9], greater than 25 µM; in [10] it was 11.4 µM.

Take `CN(Cc1cc(C(C)(C)C)cc(Br)c1O)Cc1cc(C(C)(C)C)cc(Br)c1O`: the TGI in experiment [1] was found to be 14.8 µM; in experiment [2] it was 15.9 µM; in [3], 16.9 µM; in experiment [4], 17.8 µM; in [5], 5.86 µM; in experiment [6], 11.2 µM. In addition, the TGI was determined as 10.7 µM in experiment [7], 12.2 µM in experiment [8], 17.4 µM in [9] and 12.8 µM in experiment [10].

On to `CN(C)CCNC(=O)c1ccc(NC(=O)c2nc([N+](=O)[O-])cn2C)cc1`, for which the TGI in experiment [1], in [2], in [3], in experiment [4], in experiment [5] and in experiment [6] was greater than 100 µM each time. The TGI in experiment [7], in [8], in experiment [9] and in experiment [10] was greater than 100 µM in each case.

`O=C(OC[C@H]1O[C@H](OC(=O)c2cc(O)c(O)c(OC(=O)c3cc(O)c(O)c(O)c3)c2)[C@H](OC(=O)c2cc(O)c(O)c(OC(=O)c3cc(O)c(O)c(O)c3)c2)[C@@H](OC(=O)c2cc(O)c(O)c(OC(=O)c3cc(O)c(O)c(O)c3)c2)[C@@H]1OC(=O)c1cc(O)c(O)c(OC(=O)c2cc(O)c(O)c(O)c2)c1)c1cc(O)c(O)c(OC(=O)c2cc(O)c(O)c(O)c2)c1`: the GI50 in experiment [1] was 1.24 µM; in experiment [2] it was 1.5 µM; in [3], 5.48 µM; in [4], 4.67 µM; in [5], 9.02 µM; in [6] it was 2.18 µM. The GI50 in experiment [7] was 5.21 µM; in [8], 1.86 µM; in experiment [9] it was 12.8 µM; in [10] it was 10.6 µM. For the same compound, the TGI in [1] is greater than 25 µM; in experiment [2], 7.89 µM; in [3], greater than 25 µM; in [4] it was 18.3 µM; in [5], greater than 25 µM; in [6], greater than 25 µM. The TGI in experiment [7] is 11.1 µM; in experiment [8] it was greater than 25 µM; in experiment [9], greater than 25 µM; in experiment [10], greater than 25 µM.

For `O=C1CCc2c(sc3[nH]c(=S)n(Cc4ccc(Cl)cc4)c(=O)c23)C1`, the GI50 in [1] was 0.41 µM; in experiment [2], 1.44 µM; in experiment [3] it was 0.393 µM; in experiment [4], 0.388 µM; in experiment [5], 2.07 µM; in [6], 0.442 µM. Also, the GI50 is 2.22 µM in [7], 0.562 µM in [8], 0.64 µM in experiment [9] and 0.196 µM in experiment [10]. Further, the TGI in experiment [1] is 5.4 µM; in experiment [2], 8.33 µM; in [3], greater than 100 µM; in [4], 28.2 µM; in experiment [5], 6.12 µM; in [6], greater than 100 µM. Besides, the TGI in [7] is greater than 38.6 µM; in experiment [8], greater than 45.2 µM; in experiment [9], greater than 21.1 µM; in experiment [10] it was 0.816 µM.
